This is an account of results in patent US12564193B2, “Isoxazoline-substituted benzamide derivative, and preparation method therefor and use thereof” (SHANDONG UNITED PESTICIDE INDUSTRY CO., LTD., priority 2020, dated 2026).

Read-outs that look alike come from different tables or passages of the source.

What all share (type): in vivo
Experiment [1] deals with Frankliniella occidentalis. Put plainly: Insecticidal activity, spray on pre-infested radish plants: Frankliniella occidentalis. The conditions noted are these: for pest or weed control at 1 ppm / pest or weed control at 10 ppm / pest or weed control at 25 ppm: Frankliniella occidentalis, 144 h, read-out: fatality rate on Frankliniella occidentalis; for Fatality rate on Frankliniella occidentalis (%): Table 3. The method, then: (§1) For determination of insecticidal activity, the test method was as follows: a test solution with a desired concentration was prepared by dissolving a test compound sample in a suitable solvent (the kind of solvent was such as acetone, methanol, DMSO, etc., and was selected according to its dissolving ability for the sample). The test cell was composed of a small open container with 12-15 day old radish plants inside. The plants were pre-infested by placing 30-40 pests located on one leaf cut from the cultivated plant on one leaf of the test plant (leaf cutting method). As the leaves dehydrated, the pests moved on the test plants. After the pre-infesting, the soil of the test cells was covered with a layer of sand.
The test method was as follows: the test was repeated for three times, and after spraying the formulated test compound, each test unit was allowed to dry for 1 hour, and then a black mesh cover was placed at the top. The test units were kept in a growth chamber at 25° C. and 70% relative humidity for 6 days. The mortality (fatality rate) of the insects was then visually assessed for each test unit, and the fatality rate was calculated as follows:
[formula] (1) Test Results for the Control of Frankliniella occidentalis by Exemplary Example Compounds

Another experiment concerns Plutella xylostella. The experiment is described as follows: Insecticidal activity, spray on pre-infested radish plants: Plutella xylostella. The conditions noted are these: for pest or weed control at 0.1 ppm / pest or weed control at 1 ppm / pest or weed control at 10 ppm: Plutella xylostella, 144 h, read-out: fatality rate on Plutella xylostella; for Fatality rate on Plutella xylostella (%): Table 3. As for the experimental part: as §1
(§2) The test method was as follows: the test was repeated for three times, and after spraying the formulated test compound, each test unit was allowed to dry for 1 hour, and then a black mesh cover was placed at the top. The test units were kept in a growth chamber at 25° C. and 70% relative humidity for 6 days. The mortality (fatality rate) of the insects was then visually assessed for each test unit, and the fatality rate was calculated as follows: […]

The test system of the next experiment is Pieris rapae. The experiment is described as follows: Insecticidal activity, spray on pre-infested radish plants: Pieris rapae. The conditions noted are these: 144 h, read-out: fatality rate on Pieris rapae. The method, then: as §1, §2
The next experiment relates to Mythimna separata. Put plainly: Insecticidal activity, spray on pre-infested radish plants: Mythimna separata. The conditions noted are these: for pest or weed control at 0.1 ppm / pest or weed control at 1 ppm / pest or weed control at 10 ppm: Mythimna separata, 144 h, read-out: fatality rate on Mythimna separata; for Fatality rate on Mythimna separata (%): Table 3. The method, then: as §1, §2

A further experiment has as its system Spodoptera litura. Put plainly: Insecticidal activity, spray on pre-infested radish plants: Spodoptera litura. The conditions noted are these: 144 h, read-out: fatality rate on Spodoptera litura. The method, then:
as §1, §2

For the next experiment, the system named is Chilo suppressalis. The experiment is described as follows: Insecticidal activity, spray on pre-infested radish plants: Chilo suppressalis. The conditions noted are these: for pest or weed control at 0.1 ppm / pest or weed control at 1 ppm / pest or weed control at 10 ppm: Chilo suppressalis, 144 h, read-out: fatality rate on Chilo suppressalis; for Fatality rate on Chilo suppressalis (%): Table 3. As for the experimental part:
as §1, §2

A further experiment has as its system Cnaphalocrocis medinalis. Put plainly: Insecticidal activity, spray on pre-infested radish plants: Cnaphalocrocis medinalis. The conditions noted are these: 144 h, read-out: fatality rate on Cnaphalocrocis medinalis. As for the experimental part:
as §1, §2

The next experiment relates to Tetranychus cinnabarinus. The experiment is described as follows: Acaricidal activity, slide immersion of female adult mites: Tetranychus cinnabarinus. The conditions noted are these: read-out: fatality rate on Tetranychus cinnabarinus. The method, then: The test method was as follows: a test solution with a desired concentration was prepared by dissolving a test compound sample in a suitable solvent (the kind of solvent was such as acetone, methanol, DMSO, etc., and was selected according to its dissolving ability for the sample). A double-sided adhesive tape was cut into 2-3 cm long pieces, the pieces were attached to one end of a microscope slide, paper pieces on the adhesive tape were removed using tweezers, female adult mites which were consistent in size, bright in body color and lively in action were selected using a zero-size brush pen, the backs of the female adult mites were adhered to the double-sided adhesive tape (note: the adhesion should not cover mite feet, mite whiskers and mouthparts), with 4 rows of mites adhered to each piece and 10 heads of the mites adhered to each row.
One end of the glass slide with the mites was immersed into a drug liquid, with slightly shaking for 5 seconds, and then the slide was taken out. The excess drug liquid around the mite body and is surroundings is quickly sucked off using absorbent paper. The slide was placed in the biochemical incubator described above, and the results were checked by using binoculars after 24 hours. The mites were slightly touched by using a brush pen, the mites with immobility in feet were considered to be dead, and the fatality rate was calculated. The fatality rate was calculated as follows: […]

[2] abbreviates: dose 1 ppm, immersion 5 seconds, checked after 24 hours.
[3] abbreviates: dose 10 ppm, immersion 5 seconds, checked after 24 hours.
Where [4] appears, read: dose 25 ppm, immersion 5 seconds, checked after 24 hours.

With `Cc1cc(C2=NOC(c3cc(Cl)c(F)c(Cl)c3)(C(F)(F)F)C2)ccc1C(=O)NCc1cnc(Cl)cc1C(F)(F)F` (stereo not drawn) [Compound 5], the pest or weed control at 1 ppm (in experiment [1]; with Plutella xylostella; in the experiment on Pieris rapae; in the experiment on Mythimna separata; in the experiment with Spodoptera litura; with Chilo suppressalis) was > 80% throughout. Further, the pest or weed control at 1 ppm in the experiment with Cnaphalocrocis medinalis and in the experiment on Tetranychus cinnabarinus (24 h) was > 80% throughout. The pest or weed control at 10 ppm (in experiment [1]; in the experiment on Plutella xylostella; in the experiment on Pieris rapae; with Mythimna separata; with Spodoptera litura; in the experiment with Chilo suppressalis) was > 80% each time. Moreover, the pest or weed control at 10 ppm in the experiment with Cnaphalocrocis medinalis and in the experiment on Tetranychus cinnabarinus (24 h) was > 80% throughout. The pest or weed control at 25 ppm (in experiment [1]; with Tetranychus cinnabarinus (24 h)) was > 80% in each case. In addition, the pest or weed control at 0.1 ppm in the experiment with Plutella xylostella, in the experiment with Pieris rapae, in the experiment with Mythimna separata, in the experiment on Spodoptera litura, in the experiment with Chilo suppressalis and in the experiment on Cnaphalocrocis medinalis was > 80% each time.
Turning to `Cc1cc(C2=NOC(c3cc(F)c(F)c(F)c3)(C(F)(F)F)C2)ccc1C(=O)NCc1cnc(Cl)cc1Cl` (stereo not drawn) [Compound 8], the pest or weed control at 1 ppm was > 80% in experiment [1] (dose 1 ppm, spray, 6 days); > 80% in the experiment on Plutella xylostella (dose 1 ppm, spray, 6 days); > 80% with Pieris rapae (dose 1 ppm, spray, 6 days); > 80% with Mythimna separata (dose 1 ppm, spray, 6 days); > 80% in the experiment with Spodoptera litura (dose 1 ppm, spray, 6 days); > 80% in the experiment on Chilo suppressalis (dose 1 ppm, spray, 6 days). Besides, the pest or weed control at 1 ppm in the experiment with Cnaphalocrocis medinalis (dose 1 ppm, spray, 6 days) was > 80%; in the experiment with Tetranychus cinnabarinus (setting [2]), > 80%. For the same molecule, the pest or weed control at 10 ppm is > 80% in experiment [1] (dose 10 ppm, spray, 6 days); > 80% in the experiment on Plutella xylostella (dose 10 ppm, spray, 6 days); > 80% in the experiment with Pieris rapae (dose 10 ppm, spray, 6 days); > 80% with Mythimna separata (dose 10 ppm, spray, 6 days); > 80% with Spodoptera litura (dose 10 ppm, spray, 6 days); > 80% in the experiment on Chilo suppressalis (dose 10 ppm, spray, 6 days). Moreover, the pest or weed control at 10 ppm was > 80% in the experiment with Cnaphalocrocis medinalis (dose 10 ppm, spray, 6 days) and > 80% in the experiment on Tetranychus cinnabarinus (setting [3]). Moreover, the pest or weed control at 25 ppm in experiment [1] (dose 25 ppm, spray, 6 days) was > 80%; in the experiment on Tetranychus cinnabarinus (setting [4]) it was > 80%. The pest or weed control at 0.1 ppm with Plutella xylostella (dose 0.1 ppm, spray, 6 days) is > 80%; with Pieris rapae (dose 0.1 ppm, spray, 6 days), > 80%; with Mythimna separata (dose 0.1 ppm, spray, 6 days), > 80%; with Spodoptera litura (dose 0.1 ppm, spray, 6 days), > 80%; in the experiment with Chilo suppressalis (dose 0.1 ppm, spray, 6 days), > 80%; in the experiment with Cnaphalocrocis medinalis (dose 0.1 ppm, spray, 6 days), > 80%.
Regarding `Cc1cc(C2=NOC(c3cc(Cl)c(F)c(Cl)c3)(C(F)(F)F)C2)ccc1C(=O)NCCc1ncc(C(F)(F)F)cc1Cl` (stereo not drawn) [Compound 19], the pest or weed control at 1 ppm (in experiment [1]; with Plutella xylostella; in the experiment with Pieris rapae; in the experiment with Mythimna separata; in the experiment on Spodoptera litura; in the experiment with Chilo suppressalis) was > 80% throughout. The pest or weed control at 1 ppm in the experiment on Cnaphalocrocis medinalis and in the experiment on Tetranychus cinnabarinus (24 h) was > 80% in each case. Moreover, the pest or weed control at 10 ppm (in experiment [1]; in the experiment with Plutella xylostella; in the experiment with Pieris rapae; with Mythimna separata; with Spodoptera litura; in the experiment on Chilo suppressalis) was > 80% in each case. Besides, the pest or weed control at 10 ppm with Cnaphalocrocis medinalis and with Tetranychus cinnabarinus (24 h) was > 80% in each case. In addition, the pest or weed control at 25 ppm (in experiment [1]; in the experiment on Tetranychus cinnabarinus (24 h)) was > 80% throughout. For the same molecule, the pest or weed control at 0.1 ppm in the experiment on Plutella xylostella, with Pieris rapae, in the experiment with Mythimna separata, in the experiment on Spodoptera litura, in the experiment on Chilo suppressalis and with Cnaphalocrocis medinalis was > 80% throughout.
For the molecule `Cc1cc(C2=NOC(c3cc(Cl)cc(Cl)c3)(C(F)(F)F)C2)ccc1C(=O)NCc1ccc(Cl)nc1` (stereo not drawn) [CK1, reference compound], the “Fatality rate on Frankliniella occidentalis (%)” value in experiment [1] (1 ppm) worked out at 0%; in experiment [1] (10 ppm), 40%; in experiment [1] (25 ppm) it was 80%. For the same molecule, the “Fatality rate on Plutella xylostella (%)” value in the experiment with Plutella xylostella (0.1 ppm) came to 15%; in the experiment with Plutella xylostella (1 ppm), 80%; in the experiment on Plutella xylostella (10 ppm), 100%. Further, the “Fatality rate on Mythimna separata (%)” value is recorded as 10% with Mythimna separata (0.1 ppm), 80% in the experiment with Mythimna separata (1 ppm) and 100% with Mythimna separata (10 ppm). Further, the figures for the “Fatality rate on Chilo suppressalis (%)” value with Chilo suppressalis (0.1 ppm), with Chilo suppressalis (1 ppm) and in the experiment on Chilo suppressalis (10 ppm) were 0%, 50% and 100%, respectively.
For `Cc1cc(C2=NOC(c3cc(F)c(F)c(F)c3)(C(F)(F)F)C2)ccc1C(=O)NCc1cnc(Cl)cc1C(F)(F)F` (stereo not drawn) [Compound 6], the pest or weed control at 1 ppm in experiment [1] (dose 1 ppm, spray, 6 days) is > 80%; with Plutella xylostella (dose 1 ppm, spray, 6 days) it was > 80%; in the experiment on Pieris rapae (dose 1 ppm, spray, 6 days) it was > 80%; with Mythimna separata (dose 1 ppm, spray, 6 days) it was > 80%; with Spodoptera litura (dose 1 ppm, spray, 6 days), > 80%; in the experiment with Chilo suppressalis (dose 1 ppm, spray, 6 days) it was > 80%. The pest or weed control at 1 ppm is > 80% in the experiment with Cnaphalocrocis medinalis (dose 1 ppm, spray, 6 days) and > 80% in the experiment with Tetranychus cinnabarinus (setting [2]). The pest or weed control at 10 ppm in experiment [1] (dose 10 ppm, spray, 6 days) is > 80%; with Plutella xylostella (dose 10 ppm, spray, 6 days), > 80%; with Pieris rapae (dose 10 ppm, spray, 6 days) it was > 80%; in the experiment on Mythimna separata (dose 10 ppm, spray, 6 days), > 80%; with Spodoptera litura (dose 10 ppm, spray, 6 days), > 80%; in the experiment with Chilo suppressalis (dose 10 ppm, spray, 6 days), > 80%. In addition, the pest or weed control at 10 ppm was > 80% with Cnaphalocrocis medinalis (dose 10 ppm, spray, 6 days) and > 80% in the experiment with Tetranychus cinnabarinus (setting [3]). Moreover, the pest or weed control at 25 ppm was > 80% in experiment [1] (dose 25 ppm, spray, 6 days) and > 80% with Tetranychus cinnabarinus (setting [4]). Besides, the pest or weed control at 0.1 ppm in the experiment on Plutella xylostella (dose 0.1 ppm, spray, 6 days) was > 80%; in the experiment with Pieris rapae (dose 0.1 ppm, spray, 6 days), > 80%; in the experiment with Mythimna separata (dose 0.1 ppm, spray, 6 days), > 80%; in the experiment on Spodoptera litura (dose 0.1 ppm, spray, 6 days), > 80%; with Chilo suppressalis (dose 0.1 ppm, spray, 6 days) it was > 80%; with Cnaphalocrocis medinalis (dose 0.1 ppm, spray, 6 days), > 80%.
